Experimental data as given in patent publication US20190274948A1, “PREBIOTIC COSMETIC COMPOSITIONS AND USE OF THE PREBIOTIC COSMETIC COMPOSITIONS” (Natura Cosméticos S.A., priority 2016, published 2019).
Where two headings read alike, the source gives them in different places.

How the values were obtained:
[1] = test system: tested skin-dwelling micro-organisms; assay: Prebiotic activity on panel of beneficial and undesirable skin micro-organisms; type: cell-based; conditions: FIG. 1
Method: (§1) When a concentration of 10^4 UFC/ml was reached, the micro-organisms were transferred to a minimal carbon support medium that provided the conditions required for micro-organism replication.
(§2) Each active ingredient in the compositions addressed by this invention was added to the culture medium and cultivated. Should any increased count be noted, the ingredient would be considered as having prebiotic activity.
(§3) The results of each assay were submitted to statistical analysis. The active ingredients used in the prebiotic cosmetic compositions addressed by this invention were tested on different micro-organisms.
(§4) The beneficial micro-organisms assayed were: Staphylococcus epidermidis, Staphylococcus xylosus, Staphylococcus warneri, Staphylococcus captis and Corynebacterium xerosis.
The undesirable micro-organisms assayed were: Staphylococcus aureus, Corynebacterium striatum, Corynebacterium jeikeium, Propioniumbacteria acnes and Candida albicans.

[2] = test system: Staphylococcus epidermidis; assay: Prebiotic activity: growth in minimal carbon support medium; type: cell-based; conditions: 0.5%
Method: as §1, §2, §3, §4

Staphylococcus xylosus = assay: as above; type: cell-based
Method: as §1, §2, §3, §4

elastin = assay: Elastin synthesis in human fibroblast cultures; type: cell-based; conditions: 48 hours, vs Baseline Control
Method: Human fibroblast cultures were incubated for 48 hours with the product.

IL-6 = IL-6 synthesis in human fibroblast cultures stimulated with PMA/LPS; type: cell-based; conditions: vs PMA/LPS Control
IL-8 = IL-8 synthesis in human fibroblast cultures stimulated with LPS; type: cell-based; conditions: 3.12% (w/v); vs LPS Control
IL-10 = IL-10 synthesis in human fibroblast cultures stimulated with PMA/LPS; type: cell-based; conditions: concentration not given; vs PMA/LPS Control
MMP-1 = MMP-1 synthesis in human fibroblast cultures stimulated with LPS; type: cell-based; conditions: 6.25% (p/v); vs PMA/LPS Control
human fibroblasts = assay: Cell proliferation in human fibroblast cultures; type: cell-based; conditions: for increase of proliferation: vs Control group
Text: As a positive assay control, human fibroblasts were cultivated in a culture medium supplemented with 2% of fetal bovine serum.

GAG = conditions: 72 hours

Row | Molecule | selectivity for any of the tested skin-dwelling micro-organisms [1] | growth of S. epidermidis [2] | growth of S. xylosus (Staphylococcus xylosus) | increase of elastin synthesis (elastin; 1.56% (w/v)) [%] | increase of elastin synthesis (elastin; 3.12% (w/v)) [%] | increase of elastin synthesis (elastin; 6.25% (w/v)) [%] | drop of IL-6 synthesis (IL-6; 3.12% (w/v)) [%] | drop of IL-6 synthesis (IL-6; 6.25% (w/v)) [%] | reduction of IL-8 synthesis (IL-8) [%] | reductions of IL-10 synthesis (IL-10) | reduction in MMP-1 synthesis (MMP-1) [%] | increase of proliferation (human fibroblasts; 1.563% (w/v)) [%] | increase of proliferation (human fibroblasts; 6.250% (w/v)) [%] | Fibroblast proliferation, Increase (human fibroblasts; Table 1) | lowering of GAG levels (GAG; 3.12% (w/v)) [%] | lowering of GAG levels (GAG; 6.25% (w/v)) [%]
1 | inulin | did not present selectivity |  |  |  |  |  |  |  |  |  |  |  |  |  |  | 
2 | OC[C@H]1O[C@H](O[C@H]2O[C@H](CO)[C@@H](O)[C@H](O)[C@H]2O)[C@H](O)[C@@H](O)[C@@H]1O [trehalose] |  | selectively favored the growth | selectively favored the growth | 75 | 68 | 60 | 19 | 78 | 16 | up to 31% | 20 | 33 | 12.25 | of 33% | 23 | 59
